Test system: 422866-222-R5-J1-PDC spheroid viability
Experiment: Anticancer human tumor 422866-222-R5-J1-PDC patient-derived pancreatic adenocarcinoma cell line growth inhibition [CLK]
Details: spheroids with HUVEC and MSC; for IC50: curve of first compound; for viability, T/C: stronger effect = lower value
In short: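 Patient-derived tumor cells grown as complex spheroids with HUVEC endothelial cells and mesenchymal stem cells, treated with drug combinations. Concentrations descend in half-log steps from near clinical Cmax, or from 10 microM if Cmax unknown.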

[1] = second compound 0.0316 µM, first compound 0.0316 µM
[2] = second compound 0.0316 µM, first compound 0.1 µM
[3] = second compound 0.0316 µM, first compound 0.316 µM
[4] = second compound 0.0316 µM, first compound 1 µM
[5] = second compound 0.0316 µM, first compound 3.16 µM
[6] = second compound 0.0316 µM, first compound 10 µM
[7] = second compound 0.1 µM, first compound 0.0316 µM
[8] = second compound 0.1 µM, first compound 0.1 µM
[9] = second compound 0.1 µM, first compound 0.316 µM
[10] = second compound 0.1 µM, first compound 1 µM
[11] = second compound 0.1 µM, first compound 3.16 µM
[12] = second compound 0.1 µM, first compound 10 µM
[13] = second compound 0.316 µM, first compound 0.0316 µM
[14] = second compound 0.316 µM, first compound 0.1 µM
[15] = second compound 0.316 µM, first compound 0.316 µM
[16] = second compound 0.316 µM, first compound 1 µM
[17] = second compound 0.316 µM, first compound 3.16 µM
[18] = second compound 0.316 µM, first compound 10 µM
[19] = second compound 1 µM, first compound 0.0316 µM
[20] = second compound 1 µM, first compound 0.1 µM
[21] = second compound 1 µM, first compound 0.316 µM
[22] = second compound 1 µM, first compound 1 µM
[23] = second compound 1 µM, first compound 3.16 µM
[24] = second compound 1 µM, first compound 10 µM
[25] = second compound 3.16 µM, first compound 0.0316 µM
[26] = second compound 3.16 µM, first compound 0.1 µM
[27] = second compound 3.16 µM, first compound 0.316 µM
[28] = second compound 3.16 µM, first compound 1 µM
[29] = second compound 3.16 µM, first compound 3.16 µM
[30] = second compound 3.16 µM, first compound 10 µM
[31] = second compound 10 µM, first compound 0.0316 µM
[32] = second compound 10 µM, first compound 0.1 µM
[33] = second compound 10 µM, first compound 0.316 µM
[34] = second compound 10 µM, first compound 1 µM
[35] = second compound 10 µM, first compound 3.16 µM
[36] = second compound 10 µM, first compound 10 µM
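Further: spheroids exposed to agents for seven days before readout.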

O=c1[nH]cc(F)c(=O)[nH]1 + CNC(=O)c1ccc(Nc2nc(OC3CCCC3)c3c(-c4ccc5nc(C)oc5c4)c[nH]c3n2)c(OC)c1
IC50 (second compound 0.0316 µM): > 10000 nM | IC50 (second compound 0.1 µM): > 10000 nM | IC50 (second compound 0.316 µM): > 10000 nM | IC50 (second compound 1 µM): 2180 nM | IC50 (second compound 3.16 µM): > 10000 nM | IC50 (second compound 10 µM): 3110 nM | viability, T/C [1]: 102% | viability, T/C [2]: 103% | viability, T/C [3]: 89.9% | viability, T/C [4]: 91.2% | viability, T/C [5]: 82.2% | viability, T/C [6]: 72.5% | viability, T/C [7]: 100% | viability, T/C [8]: 98.1% | viability, T/C [9]: 86% | viability, T/C [10]: 78.1% | viability, T/C [11]: 87% | viability, T/C [12]: 78.3% | viability, T/C [13]: 79.3% | viability, T/C [14]: 79.7% | viability, T/C [15]: 68.9% | viability, T/C [16]: 61.7% | viability, T/C [17]: 58.3% | viability, T/C [18]: 57.2% | viability, T/C [19]: 68.2% | viability, T/C [20]: 67.1% | viability, T/C [21]: 51.6% | viability, T/C [22]: 54.2% | viability, T/C [23]: 51% | viability, T/C [24]: 44.5% | viability, T/C [25]: 58.3% | viability, T/C [26]: 78.6% | viability, T/C [27]: 73.1% | viability, T/C [28]: 56.8% | viability, T/C [29]: 52.5% | viability, T/C [30]: 49.4% | viability, T/C [31]: 60.6% | viability, T/C [32]: 63.7% | viability, T/C [33]: 70% | viability, T/C [34]: 57.7% | viability, T/C [35]: 46.4% | viability, T/C [36]: 53.5%

COc1cccc2c1C(=O)c1c(O)c3c(c(O)c1C2=O)CC(O)(C(=O)CO)CC3OC1CC(N)C(O)C(C)O1 (centres undefined) + CNC(=O)c1ccc(Nc2nc(OC3CCCC3)c3c(-c4ccc5nc(C)oc5c4)c[nH]c3n2)c(OC)c1
IC50 (second compound 0.0316 µM): 160 nM | IC50 (second compound 0.1 µM): 106 nM | IC50 (second compound 0.316 µM): 85.5 nM | IC50 (second compound 1 µM): 79.1 nM | IC50 (second compound 3.16 µM): 109 nM | IC50 (second compound 10 µM): < 31.6 nM | viability, T/C [1]: 65% | viability, T/C [2]: 60.4% | viability, T/C [3]: 34.8% | viability, T/C [4]: 28.6% | viability, T/C [5]: 30.4% | viability, T/C [6]: 27.8% | viability, T/C [7]: 66.2% | viability, T/C [8]: 50.3% | viability, T/C [9]: 37.8% | viability, T/C [10]: 28.2% | viability, T/C [11]: 30.9% | viability, T/C [12]: 28.6% | viability, T/C [13]: 67.6% | viability, T/C [14]: 47.1% | viability, T/C [15]: 38.7% | viability, T/C [16]: 36.6% | viability, T/C [17]: 35.2% | viability, T/C [18]: 33.4% | viability, T/C [19]: 60.1% | viability, T/C [20]: 47.5% | viability, T/C [21]: 31.1% | viability, T/C [22]: 32.2% | viability, T/C [23]: 31.2% | viability, T/C [24]: 30.5% | viability, T/C [25]: 48.6% | viability, T/C [26]: 53.3% | viability, T/C [27]: 39% | viability, T/C [28]: 30.1% | viability, T/C [29]: 34.3% | viability, T/C [30]: 35.9% | viability, T/C [31]: 48.9% | viability, T/C [32]: 41.1% | viability, T/C [33]: 35.2% | viability, T/C [34]: 31.1% | viability, T/C [35]: 32% | viability, T/C [36]: 48.9%

From PubChem BioAssay AID2060603 (Molecular Pharmacology Branch, DTP, NCI, 2025)
